According to patent US11326138B2, “Cell culture device and methods of use thereof” (University of Kentucky Research Foundation, priority 2017, dated 2022):

Key:
[1] = Solute diffusion from microfluidic channels into agarose hydrogel (time-lapse fluorescence); type: physicochemical; conditions: solution pumped through channels at 25 μL/min; 1.5 wt % agarose
Description: To illustrate a dynamic solute exchange between the hydrogel and the fluid in the microchannels, a liquid suspension of 1.5 wt % agarose in DI water was pipetted into the open reservoir of the microfluidic device. After solidification of the agarose, water containing 1.0 wt % rhodamine was introduced into the inlet using a syringe pump at a constant volumetric flowrate of 25 μL/min. Time-lapse images were taken every 30 seconds using a TI-E Nikon microscope and the fluorescent intensity was measured in the resulting images using NIS-Elements software in order to track the rhodamine diffusion from the channels into the agarose hydrogel.
Water containing 1.0 wt % rhodamine (0.48 kDa) was introduced into the microfluidic channels at a flowrate of 25 μL/min. […] Florescent intensity at two points—one directly beneath a PDMS wall and another centred beneath a microfluidic channel—was tracked over time.

[2] = Incubation of a PDMS surface in contact with rhodamine solution; type: physicochemical; conditions: 1.5 wt % solution of rhodamine, over 180 seconds
[3] = modelled value for rhodamine in 1.5% agarose hydrogel medium; cited from earlier work

diffusion from microchannels into adjacent hydrogel [1]: diffused into the adjacent hydrogel | diffusion into PDMS [2]: no detectable diffusion
Substance: rhodamine
diffusion coefficient D [3]: 4×10^−6 cm^2/sec
